Earlier results as cited in patent US20030149013A1, “Methods of treating bacterial infections in dogs and cats” (priority 2001, published 2003).
Read-outs that look alike come from different tables or passages of the source.

Columns and labels:
[1] = dog

| SMILES | Rat t1/2 (PO (per os)) | Canine t1/2 ([1]; PO (per os)) | Rat t1/2 (IM (intramuscular)) | Canine t1/2 ([1]; IM (intramuscular)) |
| --- | --- | --- | --- | --- |
| CC1=C(C(=O)O)N2C(=O)[C@@H](NC(=O)[C@H](N)C3=CCC=CC3)[C@H]2SC1 [Cephadrine] | 0.82 (PO) h | 3.64 (P0) h |  |  |
| O=C(Cc1cccs1)N[C@@H]1C(=O)N2C(C(=O)[O-])=C(C[n+]3ccccc3)CS[C@H]12 [Cephalordine] |  |  | 0.5 (IM) h | 0.97 (IM) h |
